# Data as given in patent publication US8138169B2, “Combination therapy for bipolar disorder” (ComgenRx, Inc., priority 2008, dated 2012).
# Tested on: patients with bipolar disorder
# Assay: Side effects reported in patient case reports
# Type: in vivo, human
smiles,measurement,setting,value
CN(C)CCOC(c1ccccc1)c1ccccc1 [Benadryl],akisthisia,Example 42: Benadryl 1x/day for akisthisia under Geodon,significant improvement
"O=C1Cc2cc(CCN3CCN(c4nsc5ccccc45)CC3)c(Cl)cc2N1 [Geodon, ziprasidone]",tolerability,"Example 42: Geodon 80 mg/day, felt like crawling out of their skin",could not tolerate the Geodon
"OCCOCCN1CCN(C2=Nc3ccccc3Sc3ccccc32)CC1 [Seroquel, quetiapine fumurate]",effect on blood sugar,Example 15: Seroquel given by their psychiatrist,elevated their blood sugar
same,sedation,Example 18: Seroquel 400 mg,excessive sedation in the AM
[Li] [lithium],side effects,"Example 7: lithium 300 mg tid, stopped",intolerable side effects
same,side effects,"Example 21: lithium 600 mg/day, improved at 300 mg",tremulousness and stomach discomfort along with diarrhea
